# Columns and labels:
# [1] = tested on: Intracellular ROS production; test: Real-time ROS production (DCF assay); format: cell-based; details: for effect on ROS levels: Trolox 200 μM, NAC 7.5 mM, GSH-E 10 mM
# Description: Intracellular ROS production was detected using DCFH-DA probe (Sigma) (Zanotto-Filho et al., 2010, Cancer Lett 288, 192-203). This reagent enters the cells and reacts predominantly with highly oxidizing species of ROS, such as hydroxyl radicals, hydroperoxides, and peroxynitrite, thus producing the fluorophore DCF. Briefly, cells were seeded in black-edge clear bottom 96-well plates. After reaching 70% confluence, medium was changed and cells were incubated with 20 μM DCFH-DA dissolved in medium containing 0.5% FBS. After 1 h pre-incubation to allow DCFH-DA uptake, treatments were added to its respective final concentrations and DCF fluorescence was monitored at 0.5, 1, 3, 8, 12, 16 and 24 h in a fluorescence reader (Ex/Em=485/532 nm). Hydrogen peroxide was used as a positive control and N-acetylcysteine (NAC), GSH-ethyl-ester (GSH-E) and Trolox were used as antioxidant standards. As a control, at the end of 24 h, cell viability was assessed and compared to wells in the absence of DCFH-DA.
# [2] = tested on: Kc167 cells, MEFs, and MDA-MB231 breast cancer cells; test: Cell viability (CellTiter-Glo); format: cell-based, D. melanogaster, mouse, human; details: for effect on MMS toxicity / effect on toxicity of 4-HC, TMZ and CDDP: pre-incubation; for effect on MMS toxicity: then MMS, all cell types tested, 48 h; for effect on toxicity of 4-HC, TMZ and CDDP: then alkylator
# Description: The D. melanogaster embryonic cell line Kc167 was grown in Schneider medium (Invitrogen, Carlsbad, Calif.) supplemented with 10% heat-inactivated (56° C./30 min) fetal bovine serum (FBS), penicillin and streptomycin at 22° C. in a humidified incubator. Primary MEFs were obtained by harvesting 14.5-day C57BL/6J embryos as previously described (Ravi et al., 2009, PLoS Genet 5, e1000527). Briefly, fetal liver and head were removed and the remainder of the embryo was mechanically disaggregated in plating medium. A suspension of single-cells was plated in DMEM (plus 10% FBS, 100 U/mL penicillin and 100 μg/mL streptomycin). MEFs were grown for two passages before freezing aliquots. Aliquots were taken and expanded as needed for each experiment. MDA-MB231, SkBr3 and MCF-7 breast cancer cells lines were obtained from ATCC and grown in DMEM supplemented with 10% inactivated FBS plus antibiotics in a 37° C. humidified incubator at […] atmosphere. Cells were kept and treated in the exponential phase of growing (60-70% confluence). […] DMSO concentrations were kept to a maximum of 0.1% for all experiments. Cell viability was assessed using CellTiter-Glo Luminescent Viability assay (Promega) in 384 or 96-well plates white-border clear-bottom plated cells. For caspase-3/7 activity, Caspase-Glo 3/7 Assay kits were used (Promega). For caspase assays, the cells were seeded in 96-well plates and assayed directly after treatments. Caspase-3/7 inhibitor (Z-DEVD-fmk) was used to ensure assay specificity. LDH release into culture medium was quantified by Cytotox-96 Non-Radioactive assay kit in agreement with instructions (Promega).
# [3] = tested on: protein sulfhydryl (protein-SH) groups; test: Protein sulfhydryl groups (dibromobimane assay); format: cell-based; details: BSO treatment plus MMS
# Description: Protein reduced thiol groups (Protein-SH) were measured by dibromobimane assays with minor modifications (PMID:20463849). The 6-well plated cells (500,000 cells) were scraped in 0.6 mL PBS and 200 μL Perchloric acid (6 N) was added to precipitate proteins. The samples were incubated for 5 min in ice, centrifuged (14,000×g) Supernatants containing small peptides and glutathione were discarded and pellets were resuspended in 100 μL NaOH 0.1N, neutralized with 100 μL ice cold Perchloric acid (0.1 N), and 0.1 N PBS was added to keep pH constant. A stock solution of 4 mM dibromobimane in DMSO was added to a final concentration 40 μM, and incubated for 30 30 min at 37° C. Dibromobimane-protein fluorescence was measured at Ex=393 and, Em=477 nm.
# [4] = tested on: Intracellular glutathione levels; test: Glutathione assay; format: cell-based; details: glutathione precursors
# Description: Intracellular glutathione levels were measured using the Glutathione (GSH/GSSG/Total) Fluorometric Assay Kit (BioVision Incorporated, Calif.), following manufacturer protocol. Briefly, 1×10^6 cells were scraped in PBS and centrifuged. Pellets were resuspended in 100 μL Glutathione assay buffer. 60 μL of this homogenate was mixed with PCA (perchloric acid) and centrifuged. Supernatant containing small molecules including GSH were neutralized with KOH and 3 fractions were collected and separated to analyze reduced (GSH), oxidized (GSSG) and total glutathione forms (GSH+GSSG) by reaction with OPA probe (o-phthalaldehyde) in the presence or absence of GSH quencher or reducing agents depending on the compound to be determined. Fluorescence was monitored at Ex/Em=340/420 nm for 40 min. Glutathione forms were calculated and normalized by protein (Bradford's assay).
# [5] = tested on: NRF2, GCLC, ER stress markers; test: Western blot of NRF2, GCLC and ER stress markers; format: cell-based; details: CHX 1 μg/mL, Actinomycin D 5 μg/mL, NAC 7.5 mM
# Description: (§1) Western blot. Protein lysates were prepared using RIPA buffer containing 5% sodium deoxycholate, 0.1% SDS, 0.1% Igepal in PBS with a cocktail of protease and phosphatase inhibitors (1 mM PMSF, 1 mM sodium orthovanadate, 1 mM NaF, and 30 μL/mL aprotinin (Sigma-Aldrich, USA)) and clarified by centrifugation. Protein concentration was determined using Bradford Protein Assay Reagent (Biorad, Hercules, Calif.). Equal amounts of protein were resolved using 8-12% SDS polyacrylamide gel, transferred onto nitrocellulose membranes (Hybond-ECL, GE Healthcare Lifesciences, Piscataway, N.J.) and detected using Lumiglo system (Cell Signaling Technology, Calif.) and x-ray films. Primary antibodies included COX-2 (#4842), NRF2 (D1C9), p-JNK1/2 (Thr183/Tyr185, #4671), p-p38 (Thr180/Tyr182, #9216), p-ERK1/2 (Thr202/Tyr204, #9101), BiP/GRP78 (C50B12), IRE1a (14C10), CHOP (L63F7) and PERK (D11A8) from Cell Signaling Technology; p-IRE1a (Ser724; NB100-2323) from Novus Biologicals; GCLC (Ab41463), beta-actin (ab8227) and ATF6 (Ab37149) from Abcam; p-PERK (Thr 981, sc-32577) and ATF3 (C19) were purchased from Santa Cruz. All primary antibodies were used at 1:1000 dilutions and secondary antibodies were 1:3000 in TBS-T with 5% BSA.
# [6] = tested on: MAPKs (ERK1/2, JNK1/2 and p38) and ATF2; test: Western blot of MAPK phosphorylation; format: cell-based; details: MDA-MB231 cells, 8 h
# Description: as §1
# [7] = tested on: NFκB-responsive firefly luciferase construct in MDA-MB231 cells; test: NFκB gene reporter assay; format: cell-based, human; details: MDA-MB231, pre-incubation with inhibitor
# Description: (§2) Prior to transfection, cells were plated in 96-well plates to 80-90% confluence (100 μL antibiotic free-medium) after 24 h. When used, siRNA were incubated by reverse transfection during cells seeding. […] A mixture of non-inducible firefly luciferase construct and constitutively expressing Renilla luciferase construct (40:1) were used as negative controls. Approximately 24 h post-transfection, the medium was changed and the cells were treated for 12 h with alkylating agents (with/out 6 h pre-treatments). At the end of this period, medium was changed to drug-free fresh medium (to minimize the effect of alkylating toxicity on promoters activity) and cells were kept for an additional 12 h.
# [8] = tested on: AP1-responsive firefly luciferase construct in MDA-MB231 cells; test: AP-1 gene reporter assay; format: cell-based, human; details: MDA-MB231, pre-incubation with inhibitor
# Description: as §2
# MDA-MB231 cells = test: Extracellular matrix invasion assay (Boyden chamber); format: cell-based, human; details: direct incubation
# Description: (§3) Quantification of MMP1 and MMP3 content in culture medium was assessed using RayBio-MMP3 and RayBio-MMP1 Elisa Kit (RayBiotech, Inc); IL8 was analyzed by Human IL-8 Elisa kit (Pierce Biotechnology). The levels of prostaglandin E2 (PGE2) were determined using the Prostaglandin E2 EIA Kit Monoclonal (Cayman Chemical Company). Culture media were diluted to fit within the standard curves. For conditioned media (CM) preparation for invasion and in vitro angiogenesis experiments, 12-well plated cells were treated with MMS (or MMS plus inhibitors) for 8 h in the presence of 10% FBS, twice washed with HBSS, and incubated with 700 μL drug/serum-free fresh medium for additional 12 h. Thereafter, the conditioned fresh medium was collected and directly used for migration and invasion experiments in order to reduce freezing associated loss of activity.
# The invasion potential of breast cancer cells was estimated using the QCM™ 24-Well Cell Invasion Assay Fluorimetric (Millipore). Serum starved cells were trypsinized, trypsin-inhibited, centrifuged, resuspended to 5000 cells/μL, and 50 μL of this suspension (250,000 cells) was seeded on 8 μm pore size inserts coated with extracellular matrix in serum-free conditions. Afterwards, 200 μL conditioned (CM) or fresh medium without serum was added to top chambers. The bottom chamber consisted of 500 μL of DMEM supplemented with 10% FBS as chemoattractant. Cells were allowed to migrate for 24 h at 37° C. under 5% CO2. Invaded cells were detached from the bottom side of the insert, lysed and incubated with CyQuant GR fluorescent Dye for 15 min. Fluorescence was read at Ex/Em=480/520 nm. Percentage of invading cells was compared to cell number standard curves.
# human endothelial cells = test: In vitro angiogenesis (Angiophase kit, CD31); format: cell-based; details: direct incubation
# Description: as §3
# The Angiophase kit (MBL Inc.) was used to assess the angiogenic potential of conditioned media (CM) from breast cancer cells or the direct effect of pharmaceutical inhibitors (free-drug system) on vessel-like structures formation in vitro. With this kit, human endothelial cells are co-cultured in a specially designed medium to form threadlike tubule structures. These gradually join up to form a network of anastomosing tubules, which resemble the capillary bed found in the CAM assay. Kit-provided cryopreserved co-culture of human endothelial cells were plated and kept for 96 h (proliferative phase) without treatments. Afterwards, the cells were maintained in the presence of conditioned medium from alkylating agent treated cells or control medium for a total of 14 days (angiogenic/vasculogenic phase). Medium was changed each 2 days. At the end of treatments, the cells were fixed and immune-stained for CD31 (PECAM-1), following by incubation with secondary antibody conjugate. ELISA was developed using the soluble substrate p-nitrophenyl-phosphate (p-NPP) whose product was colorimetrically read at 405 nm. After ELISA assays, the wells were washed with dH2O and tubule staining was performed by incubating CD31-stained tubules with the substrate BCIP/NBT, which form insoluble precipitates. Tubules were counted and photographed for qualitative monitoring.
Compound,effect on MMS toxicity [2],"effect on toxicity of 4-HC, TMZ and CDDP [2]",effect on ROS levels [1],effect on GSH levels [4],"trans-well invasion, purified factor (MDA-MB231 cells)",other results
"CCCCS(=N)(=O)CCC(N)C(=O)O (centres unmarked) [BSO, buthionine sulfoximine]",substantial necrotic cell death,potentiated,,,,"ROS production, agent alone ([1]; BSO 2.5 mM, CDDP 75 μM, TMZ 1.5 mM, 4HC 75 μM, 12 h): increased ROS to levels higher than the dose of MMS used; effect on MMS-induced ROS ([1]; BSO plus MMS): 2 fold; viability, agent alone ([2]; 2.5 mM, up to 48 h): without effect on viability; effect on depletion of protein-SH residues by MMS [3]: potentiated the depletion of protein-SH residues by MMS"
"CCOC(=O)CNC(=O)[C@H](CS)NC(=O)CC[C@H](N)C(=O)O [GSH-E, glutathione ethyl-ester]",protective against MMS toxicity,attenuated,reduced ROS below levels of the control,effectively increased the GSH levels,,
"CC(=O)N[C@@H](CS)C(=O)O [NAC, N-Acetyl-Cysteine]",protective against MMS toxicity,attenuated,reduced ROS below levels of the control,effectively increased the GSH levels,,effect on MMS-induced NRF2 activation [5]: block both NRF2 activation and ER stress caused by MMS; effect on BSO+MMS toxicity ([2]; NAC pretreatment): rescued the deleterious effects of BSO+MMS combination; effect on MMS-induced MAPK phosphorylation [6]: inhibited
N#CC(=C(/N)Sc1ccccc1N)/C(C#N)=C(/N)Sc1ccccc1N [UO126],,,,,,"decrease in cell numbers (anti-proliferative, not cytotoxic) (MDA-MB231): 30%; effect on MMS-induced activation of NFκB reporter [7]: blocked; effect on MMS-induced activation of AP-1 reporter [8]: blocked"
IL8: purified IL8,,,,,stimulated trans-well invasion,"vessel-like structure formation, purified factor (human endothelial cells): angiogenic"
MMP1: purified MMP1,,,,,stimulated trans-well invasion,
